For 14 compounds, TGI and GI50 results are on record in PubChem BioAssay (NCI).

Among the test systems are 786-0 renal; BT-549 breast; HCT-15 colon; HT29 colon; SF-539 CNS; UO-31 renal; COLO 205 colon; HOP-62 NSCLC; MCF7 breast.
Assay in all cases: NCI anticancer screen, dose series, 48 h

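Step 1: Grow cells in 96-well plates. Step 2: Expose to compound for 48 hours at 5 concentrations. Step 3: Interpolate endpoints linearly; if unreached, use highest concentration. The concentration for 50% growth inhibition is given as GI50. Definition used: TGI = concentration required for complete inhibition of growth.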

As to `CCOC(=O)c1c(-c2ccccc2)c(-c2ccccc2)cn1C`, the TGI in the experiment on 786-0 renal, with BT-549 breast, in the experiment with HCT-15 colon, in the experiment with HT29 colon, in the experiment on SF-539 CNS and in the experiment on UO-31 renal was more than 10 µM throughout.
Turning to `Cc1cc(-c2nc3ccccc3s2)ccc1NC(=O)[C@@H](N)CCCCN`, the TGI amounted to 13.2 µM in the experiment on 786-0 renal; 24.1 µM in the experiment on BT-549 breast; 24.8 µM in the experiment on COLO 205 colon; 24.3 µM in the experiment with HCT-15 colon; 25.9 µM in the experiment on HOP-62 NSCLC; 16.9 µM with HT29 colon. In addition, the TGI worked out at 11.7 µM with MCF7 breast and 19.3 µM in the experiment with UO-31 renal.
With `O=[N+]([O-])c1ccc(/C=C/c2cc(-c3ccccc3)nc3ccc4ccccc4c23)cc1`, the TGI in the experiment with 786-0 renal, in the experiment with COLO 205 colon, in the experiment on HCT-15 colon, in the experiment with HOP-62 NSCLC, in the experiment with HT29 colon and in the experiment on MCF7 breast was more than 100 µM in each case. The TGI with SF-539 CNS and with UO-31 renal was more than 100 µM in each case.
Consider `CC(=O)c1cccn1/C=C(\OC(=O)OC(C)(C)C)c1ccc[nH]1`, for which the TGI with 786-0 renal, with BT-549 breast, with COLO 205 colon, with HCT-15 colon, with HOP-62 NSCLC and in the experiment on MCF7 breast was more than 100 µM each time. In the experiment on UO-31 renal, this compound returned a TGI of more than 100 µM.
As to `N=C(N)c1ccc(-c2ccc(-c3cccs3)s2)cc1`, the GI50 in the experiment with BT-549 breast was 3.77 µM; in the experiment with HT29 colon, 1.24 µM; in the experiment on SF-539 CNS it was 1.65 µM; in the experiment with UO-31 renal, 0.978 µM. Besides, the TGI in the experiment on BT-549 breast came out at 14.5 µM; in the experiment on HT29 colon, 2.6 µM; with SF-539 CNS it was 3.09 µM; with UO-31 renal, 2.48 µM.
`O=C(NC(COC(=O)C(Cc1ccccc1)NC(=O)c1ccccc1)Cc1ccccc1)c1ccccc1` (stereo not given): the TGI in the experiment on HCT-15 colon, with HOP-62 NSCLC, in the experiment on HT29 colon, in the experiment on MCF7 breast, in the experiment on SF-539 CNS and in the experiment with UO-31 renal was more than 50 µM in each case.
For the compound `COC(=O)c1cc2c(cc1CC1Cc3cc4c(cc3C1)CCC4)CCC2`, the TGI with 786-0 renal was more than 100 µM; in the experiment with COLO 205 colon, more than 100 µM; in the experiment on HCT-15 colon it was more than 100 µM; with HOP-62 NSCLC, more than 100 µM; with HT29 colon, more than 100 µM; in the experiment with MCF7 breast it was 91.2 µM. For the same compound, the TGI with SF-539 CNS and with UO-31 renal was more than 100 µM throughout.
On to `C[C@@H](Cl)[C@H]1CCCN(Cc2ccc(Br)cc2)C1`, for which the TGI with 786-0 renal, with COLO 205 colon, with HCT-15 colon, in the experiment with HOP-62 NSCLC, in the experiment on HT29 colon and in the experiment on MCF7 breast was more than 12.5 µM in each case. Also, the TGI in the experiment on SF-539 CNS and in the experiment with UO-31 renal was more than 12.5 µM throughout.
With `CC1CN=C(N(C(=O)Nc2ccc(F)c(Cl)c2)c2ccccc2)S1` (stereo not given), the TGI was 56 µM in the experiment with 786-0 renal; 38.9 µM with COLO 205 colon; 75.3 µM with HCT-15 colon; 61.6 µM in the experiment on HOP-62 NSCLC; 58 µM in the experiment on HT29 colon; 25.9 µM in the experiment with MCF7 breast. Further, the TGI in the experiment on SF-539 CNS was more than 100 µM; with UO-31 renal, 98.1 µM.
Turning to `NNC1=N/C(=C\c2ccco2)C(Cl)=N1`, the TGI in the experiment on 786-0 renal, with COLO 205 colon, in the experiment on HCT-15 colon, in the experiment with HOP-62 NSCLC, in the experiment with HT29 colon and with MCF7 breast was more than 100 µM throughout. Moreover, the results for the TGI with SF-539 CNS and with UO-31 renal were 57.4 µM and more than 100 µM, respectively.
As to `C=C1c2cc3c(cc2CC12Cc1cc4c(cc1C2=O)CCC4)CCC3` (stereo not given), the TGI in the experiment on 786-0 renal, with HCT-15 colon, in the experiment with HOP-62 NSCLC, in the experiment with HT29 colon, in the experiment on MCF7 breast and in the experiment on SF-539 CNS was more than 100 µM each time. The compound further yielded a TGI in the experiment with UO-31 renal of more than 100 µM.
Take `O=C(O)c1cc(-c2ccc3c(O)c(O)ccc3c2)ccc1O`: the TGI in the experiment with 786-0 renal was more than 75 µM; in the experiment on COLO 205 colon, more than 75 µM; in the experiment on HCT-15 colon, more than 75 µM; in the experiment on HOP-62 NSCLC, more than 75 µM; in the experiment on HT29 colon, 42.5 µM; in the experiment on MCF7 breast, 25.1 µM. Moreover, the TGI in the experiment with SF-539 CNS and in the experiment on UO-31 renal was more than 75 µM each time.
In the case of `Cc1ccc(CC[P+](=O)CCc2ccc(C)nc2)cn1`, the TGI with 786-0 renal, in the experiment on COLO 205 colon, with HCT-15 colon, in the experiment with HOP-62 NSCLC, with HT29 colon and in the experiment with MCF7 breast was more than 100 µM in each case. In the experiment with SF-539 CNS, this compound had a TGI of more than 100 µM.
As to `CCOC(CNCCC(=O)OC)OCC`, the TGI with 786-0 renal, with COLO 205 colon, with HCT-15 colon, in the experiment on HOP-62 NSCLC, in the experiment with HT29 colon and in the experiment on MCF7 breast was more than 10 µM each time. The TGI in the experiment on SF-539 CNS and in the experiment on UO-31 renal was more than 10 µM throughout.
